This is an account of results in ChEMBL document CHEMBL1126208, “Synthesis and antileukemic activity of etoposide a-ring analogs” (Bioorg Med Chem Lett, 1992).

≈ marks a conversion by molar mass, not a printed value.

Experiment [1] has as its system Mus musculus. The experiment in a line: Anti-P388 Leukemia activity after 280 mg/kg/injection ip administration on days 5 and 8 expressed as percent of median survival time of drug treated mice compared to saline treated controls. Type of experiment: functional. To be noted: route intraperitoneal.
Experiment [2] has as its system HCT-116. The experiment in a line: Compound was tested for its in vitro cytotoxicity in HCT116 cell line after 72 hours. It counts as functional, cell-based. As to conditions: Homo sapiens, HCT-116, 72 h.
Experiment [3] deals with HCT-116. Kind of experiment: Compound was tested for its in vitro cytotoxicity in HCT-VP35 cell line after 72 hours. It counts as functional, cell-based. To be noted: Homo sapiens, HCT-116, 72 h.
Experiment [4] deals with Mus musculus. Kind of experiment: Anti-P388 Leukemia activity after 70 mg/kg/injection ip administration on days 5 and 8 expressed as percent of median survival time of drug treated mice compared to saline treated controls. Type of experiment: functional. As to conditions: route intraperitoneal.
The subject of experiment [5] is Mus musculus. The experiment in a line: Anti-P388 Leukemia activity determined when compound 120 mg/kg was administered ip on day 53 on mice expressed as the Long -term survivors (LTS); mice alive/total No of mice tested=6. Type of experiment: functional. As to conditions: route intraperitoneal.
Experiment [6] has as its system Mus musculus. Kind of experiment: Anti-P388 Leukemia activity after 140 mg/kg/injection ip administration on days 5 and 8 expressed as percent of median survival time of drug treated mice compared to saline treated controls. To be noted: route intraperitoneal. Type of experiment: functional.
A short description of experiment [7]: Ratio of IC50 of HCT-VP35 to IC50 of HCT116. It counts as functional.
Experiment [8] relates to Mus musculus. Kind of experiment: Anti-P388 Leukemia activity determined when compound 150 mg/kg was administered ip on day 51 on mice expressed as the Long -term survivors (LTS); mice alive/total; total no of mice =6. Type of experiment: functional. To be noted: route intraperitoneal.
Experiment [9] concerns Mus musculus. The experiment in a line: Anti-P388 Leukemia activity determined when compound 150 mg/kg was administered ip on day 51 on mice expressed as the Long -term survivors (LTS); mice alive/total. To be noted: route intraperitoneal. It counts as functional.
Experiment [10] is described as follows: Ratio of IC50 of HCT-VP35 to IC50 of HCT116. It counts as functional.
Experiment [11] deals with Mus musculus. The experiment in a line: Anti-P388 Leukemia activity determined when compound 120 mg/kg was administered ip on day 26 on mice expressed as the Long -term survivors (LTS); mice alive/total No of mice tested=6. To be noted: route intraperitoneal. It counts as functional.
For experiment [12], the system named is Mus musculus. Kind of experiment: Anti-P388 Leukemia activity determined when compound 150 mg/kg was administered ip on day 48 on mice expressed as the Long -term survivors (LTS); mice alive/total; No of mice tested=6. As to conditions: route intraperitoneal. Type of experiment: functional.
The subject of experiment [13] is Mus musculus. Kind of experiment: Anti-P388 Leukemia activity determined when compound 150 mg/kg was administered ip on day 48 on mice expressed as the Long -term survivors (LTS); mice alive/total No of mice tested=6. As to conditions: route intraperitoneal. It counts as functional.

A word on the IC50: it is the concentration at which inhibition is half-maximal. A low value points to greater potency.

Take `COc1cc([C@@H]2c3cc(O)c(O)cc3[C@@H](O[C@@H]3O[C@@H]4CO[C@@H](C)O[C@H]4[C@H](O)[C@H]3O)[C@H]3COC(=O)[C@H]23)cc(OC)c1O`: the T/C amounted to 165 in the experiment with Mus musculus [1], 125 in the experiment with Mus musculus [4] and 130 in the experiment with Mus musculus [6]. The concentration for half-maximal inhibition (IC50) in the experiment with HCT-116 [2] and with HCT-116 [3] was above 15.6 µg/mL in each case. In addition, the LTS with Mus musculus [5] was 2.

`COc1cc2c(cc1OC)[C@@H](O[C@@H]1O[C@@H]3CO[C@@H](C)O[C@H]3[C@H](O)[C@H]1O)[C@H]1COC(=O)[C@@H]1[C@@H]2c1cc(OC)c(O)c(OC)c1`: the T/C with Mus musculus [1] was found to be 228; in the experiment with Mus musculus [4] it was 189; in the experiment on Mus musculus [6], 189. The IC50 in the experiment on HCT-116 [2] was 1.61 µg/mL (≈ 2.66 µM); with HCT-116 [3], 10.3 µg/mL (≈ 17.1 µM). Further, in experiment [7], the Ratio turned out to be 6.4. Also, in the experiment on Mus musculus [8], the LTS amounted to 4.

For `COc1cc([C@@H]2c3cc(OC(C)=O)c(OC(C)=O)cc3[C@@H](O[C@@H]3O[C@@H]4CO[C@@H](C)O[C@H]4[C@H](O)[C@H]3O)[C@H]3COC(=O)[C@H]23)cc(OC)c1O`, the results for the T/C with Mus musculus [1], with Mus musculus [4] and in the experiment on Mus musculus [6] were 194, 144 and 167, respectively. For the same compound, in the experiment on Mus musculus [9], the LTS is on record as 4. Also, the half-inhibitory concentration (IC50) in the experiment on HCT-116 [2] amounted to 19.6 µg/mL (≈ 29.6 µM); in the experiment with HCT-116 [3] it was 27.1 µg/mL (≈ 41 µM). Moreover, the Ratio in experiment [10] was found to be 1.4.

Consider `COc1cc([C@@H]2c3cc4oc(=S)oc4cc3[C@@H](O[C@@H]3O[C@@H]4CO[C@@H](C)O[C@H]4[C@H](O)[C@H]3O)[C@H]3COC(=O)[C@H]23)cc(OC)c1O`, for which the T/C came out at 170 with Mus musculus [1], 130 in the experiment on Mus musculus [4] and 155 with Mus musculus [6]. In addition, the half-maximal inhibitory concentration (IC50) with HCT-116 [2] and with HCT-116 [3] was above 15.6 µg/mL throughout. In the experiment with Mus musculus [11], this compound yielded an LTS of 6.

For the compound `COc1cc([C@@H]2c3cc4c(cc3[C@@H](O[C@@H]3O[C@@H]5CO[C@@H](C)O[C@H]5[C@H](O)[C@H]3O)[C@H]3COC(=O)[C@H]23)OCO4)cc(OC)c1O` [ETOPOSIDE], the concentration for half-maximal inhibition (IC50) is 0.34 µg/mL (≈ 0.578 µM) with HCT-116 [2] and 1.78 µg/mL (≈ 3.02 µM) in the experiment on HCT-116 [3]. In addition, the Ratio in experiment [7] stood at 5.2.

With `COc1cc([C@@H]2c3cc(O)c(O)cc3[C@@H](O[C@@H]3O[C@@H]4CO[C@@H](C)O[C@H]4[C@H](OC(=O)OCC(Cl)(Cl)Cl)[C@H]3OC(=O)OCC(Cl)(Cl)Cl)[C@H]3COC(=O)[C@H]23)cc(OC)c1OC(=O)OCC(Cl)(Cl)Cl`, the T/C with Mus musculus [1] stood at 105; with Mus musculus [4] it was 100; with Mus musculus [6], 100. For the same compound, the values for the IC50 in the experiment with HCT-116 [2] and in the experiment on HCT-116 [3] were 10.2 µg/mL (≈ 9.27 µM) and 8.95 µg/mL (≈ 8.12 µM), respectively. Besides, the Ratio in experiment [7] is 0.87. In the experiment with Mus musculus [12], this compound showed an LTS of 5.

Take `COc1cc([C@@H]2c3cc(OC(=O)OCc4ccccc4)c(OC(=O)OCc4ccccc4)cc3[C@@H](O[C@@H]3O[C@@H]4CO[C@@H](C)O[C@H]4[C@H](O)[C@H]3O)[C@H]3COC(=O)[C@H]23)cc(OC)c1O`: the figures for the half-maximal inhibitory concentration (IC50) in the experiment with HCT-116 [2] and in the experiment on HCT-116 [3] were 5.8 µg/mL (≈ 6.87 µM) and 11.8 µg/mL (≈ 14 µM), respectively. Moreover, the Ratio in [7] was found to be 2.

Consider `CCCCCCCC(=O)Oc1cc2c(cc1OC(=O)CCCCCCC)[C@@H](O[C@@H]1O[C@@H]3CO[C@@H](C)O[C@H]3[C@H](O)[C@H]1O)[C@H]1COC(=O)[C@@H]1[C@@H]2c1cc(OC)c(O)c(OC)c1`, for which the T/C in the experiment on Mus musculus [1] is reported as 135; in the experiment with Mus musculus [4] it was 120; in the experiment with Mus musculus [6], 125. Moreover, the half-inhibitory concentration (IC50) in the experiment with HCT-116 [2] was 8.03 µg/mL (≈ 9.69 µM); in the experiment with HCT-116 [3], 21.7 µg/mL (≈ 26.1 µM). The compound further came in with an LTS in the experiment on Mus musculus [13] of 5. Further, the Ratio in experiment [7] is 2.7.
